Reference: patent publication US20250332173A1, “COMPOUNDS AND METHODS FOR MODULATING NUCLEIC ACID SPLICING” (REMIX THERAPEUTICS INC., priority 2021, published 2025)
Where two headings read alike, the source gives them in different places.

Tests used:
MYB mRNA = experiment: RT-qPCR splicing assay, MYB canonical junction (CJ) and alternative junction (AJ) mRNA; format: cell-based, human; conditions: Homo sapiens; for AC50: increase in MYB alternative junction (AJ) mRNA, read-out: MYB AJ AC50
In short: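 A673 or K562 cells were treated for 24 h at 37 °C with an 11-point 3-fold compound dilution series (top final concentration 10 uM, DMSO ≤0.25%). After lysis, one-step TaqMan RT-qPCR quantified junction transcripts, normalized to PPIA for A673 or to GAPDH/GUSB for K562.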

HTT = experiment: HiBiT protein abundance assay, HTT HiBiT K562 cell line; format: cell-based, human; conditions: 24 hours, top dose 10 μM
In short: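 Endogenous targets in K562 knock-in lines carried a HiBiT tag and were treated for 24 h at 37 °C with 10-point 3-fold dilutions (top 10 μM final, DMSO ≤0.25%). Abundance was read as lytic Nano-Glo HiBiT luminescence. IC50 came from a four-parameter logistic fit of normalized response.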

[1] = canonical junction qPCR panel, Table 5, read-out: MYB (decrease in CJ mRNA levels, IC50)
[2] = decrease in MYB canonical junction (CJ) mRNA, RT-qPCR, read-out: MYB CJ IC50
[3] = HiBiT K562 cell line, read-out: Effect on protein abundance, HTT (IC50 category)
[4] = Table 5 panel, canonical junction qPCR, compound concentration having 50% response in CJ decrease, read-out: MYB IC50 (decrease in CJ mRNA levels)

IC50 (MYB mRNA; [1]) [nM]	IC50 (MYB mRNA; [2]) [nM]	IC50 (HTT; HiBiT lytic detection, modified K562 cells, read-out: Effect on protein abundance, HTT (IC50)) [nM]	IC50 (HTT; [3]) [nM]	IC50 (MYB mRNA; [4]) [nM]	SMILES	AC50 (MYB mRNA; RT-qPCR) [nM]
100 to 1000	100 to 1000	100 to 1000	–	–	Cc1cn2nc(-c3ccc4c(=O)n(C5CC(C)N[C@H](C)C5)ncc4n3)cc(C)c2n1 (stereo in doubt) [Compound 1536, 2-(2,8-dimethylimidazo[1,2-b]pyridazin-6-yl)-6-[(2S,6R)-2,6-dimethyl-4-piperidyl]pyrido[2,3-d]pyridazin-5-one]	100 to 1000
100 to 1000	100 to 1000	–	100 to 1000	–	Cc1cn2nc(-c3ccc4c(=O)n(C5C[C@@H](C)N[C@H](C)C5)ncc4n3)cc(C)c2n1 (stereo in doubt) [Compound 1537, 2-(2,8-dimethylimidazo[1,2-b]pyridazin-6-yl)-6-[(2R,6R)-2,6-dimethyl-4-piperidyl]pyrido[2,3-d]pyridazin-5-one]	100 to 1000
100 to 1000	100 to 1000	–	100 to 1000	–	Cc1cn2nc(-c3ccc4c(=O)n([C@H]5CC(C)N[C@@H](C)C5)ncc4n3)cc(C)c2n1 (stereo in doubt) [Compound 1538, 2-(2,8-dimethylimidazo[1,2-b]pyridazin-6-yl)-6-[(2S,6S)-2,6-dimethyl-4-piperidyl]pyrido[2,3-d]pyridazin-5-one]	100 to 1000
–	100 to 1000	–	100 to 1000	100 to 1000	Cc1cn2cc(-c3ccc4c(=O)n(C5CCNCC5)cnc4c3)cc(F)c2n1 [Compound 205]	100 to 1000
–	< 100	–	100 to 1000	100 to 1000	Cn1cc2cc(-c3ccc4c(=O)n(C5CCNCC5)cnc4c3)cc(F)c2n1 [Compound 206]	100 to 1000
–	1000 to 10000	–	1000 to 10000	1000 to 10000	Cc1cn2cc(-c3ccc4c(=O)n(C5CCN(C)CC5)cnc4c3)cc(F)c2n1 [Compound 207]	1000 to 10000
–	1000 to 10000	–	1000 to 10000	1000 to 10000	CN1CCC(n2cnc3cc(-c4ccc5nn(C)cc5c4)ccc3c2=O)CC1 [Compound 208]	1000 to 10000
–	100 to 1000	–	> 10000	100 to 1000	CN1CCC(n2cnc3cc(-c4cc(F)c5nn(C)cc5c4)ccc3c2=O)CC1 [Compound 209]	100 to 1000
–	1000 to 10000	–	1000 to 10000	1000 to 10000	Cc1cn2cc(-c3ccc4c(=O)n(C5CCNCC5)cnc4c3F)cc(F)c2n1 [Compound 210]	1000 to 10000
–	1000 to 10000	–	100 to 1000	1000 to 10000	Cc1nc2c(F)cc(-c3ccc4c(c3)CCN(C3CCNCC3)C4=O)cc2o1 [Compound 215]	1000 to 10000
–	1000 to 10000	–	100 to 1000	100 to 1000	Cc1cn2cc(-c3ccc4c(c3)CCN(C3CCNCC3)C4=O)cc(Cl)c2n1 [Compound 216, 6-[8-chloro-2-methylimidazo[1,2-a]pyridin-6-yl]-2-(piperidin-4-yl)-3,4-dihydroisoquinolin-1-one]	100 to 1000
–	1000 to 10000	–	100 to 1000	1000 to 10000	Cc1cn2cc(-c3ccc4c(c3)CCN(C3CCNCC3)C4=O)cc(C)c2n1 [Compound 217, 6-[2,8-dimethylimidazo[1,2-a]pyridin-6-yl]-2-(piperidin-4-yl)-3,4-dihydroisoquinolin-1-one]	1000 to 10000
–	1000 to 10000	–	1000 to 10000	1000 to 10000	Cc1cn2cc(-c3ccc4c(c3)CCN(C3CCNCC3)C4=O)c(C)cc2n1 [Compound 218, 6-[2,7-dimethylimidazo[1,2-a]pyridin-6-yl]-2-(piperidin-4-yl)-3,4-dihydroisoquinolin-1-one]	1000 to 10000
–	100 to 1000	–	100 to 1000	100 to 1000	Cc1cc(-c2ccc3c(c2)CCN(C2CCNCC2)C3=O)cc2cn(C)nc12 [Compound 219, 6-(2,7-dimethylindazol-5-yl)-2-(piperidin-4-yl)-3,4-dihydroisoquinolin-1-one]	100 to 1000
–	> 10000	–	> 10000	> 10000	O=C1c2ccc(-c3cn[nH]c3)cc2CCN1C1CCNCC1 [Compound 220, 2-(piperidin-4-yl)-6-(1H-pyrazol-4-yl)-3,4-dihydroisoquinolin-1-one]	> 10000
–	> 10000	–	> 10000	> 10000	Cc1cn2cc(-c3ccc4c(c3)CCN(C3CCNCC3)C4=O)nc2c(C)n1 [Compound 221, 6-[6,8-dimethylimidazo[1,2-a]pyrazin-2-yl]-2-(piperidin-4-yl)-3,4-dihydroisoquinolin-1-one]	> 10000
–	1000 to 10000	–	1000 to 10000	1000 to 10000	Cc1cn2nc(-c3ccc4c(c3)CCN(C3CCNCC3)C4=O)nc2c(C)n1 [Compound 222, 6-[6,8-dimethyl-[1,2,4]triazolo[1,5-a]pyrazin-2-yl]-2-(piperidin-4-yl)-3,4-dihydroisoquinolin-1-one]	1000 to 10000
–	100 to 1000	–	1000 to 10000	100 to 1000	Cc1cn2nc(-c3ccc4c(c3)CCN(C3CCNCC3)C4=O)cc2c(C)n1 [Compound 223, 6-[4,6-dimethylpyrazolo[1,5-a]pyrazin-2-yl]-2-(piperidin-4-yl)-3,4-dihydroisoquinolin-1-one]	100 to 1000

IC50 (MYB mRNA; [1]) [nM]	IC50 (MYB mRNA; [2]) [nM]	IC50 (HTT; HiBiT lytic detection, modified K562 cells, read-out: Effect on protein abundance, HTT (IC50)) [nM]	IC50 (HTT; [3]) [nM]	IC50 (MYB mRNA; [4]) [nM]	SMILES	AC50 (MYB mRNA; RT-qPCR) [nM]
–	1000 to 10000	–	> 10000	> 10000	Cc1cn2cc(-c3ccc4c(c3)CCN(C3CCNCC3)C4=O)ncc2n1 [Compound 224]	> 10000
–	> 10000	–	1000 to 10000	> 10000	Cn1cc2cc(-c3ccc4c(c3)CCN(C3CCNCC3)C4=O)cc(F)c2n1 [Compound 225]	> 10000
–	1000 to 10000	–	1000 to 10000	1000 to 10000	Cc1nc2c(F)cc(-c3ccc4c(c3)CCN(C3CCNCC3)C4=O)cc2s1 [Compound 226]	1000 to 10000
–	1000 to 10000	–	1000 to 10000	1000 to 10000	Cc1cn2cc(-c3ccc4c(=O)n(C5CCN(C)CC5)cnc4c3F)cc(F)c2n1 [Compound 227]	1000 to 10000
–	100 to 1000	–	100 to 1000	100 to 1000	Cc1cn2cc(-n3cnc4cc(N5CCNCC5)ccc4c3=O)cc(F)c2n1 [Compound 228]	100 to 1000
–	> 10000	–	> 10000	> 10000	Cc1cn2cc(-n3cnc4cc(N5CCN(C)CC5)ccc4c3=O)cc(F)c2n1 [Compound 229]	> 10000
–	< 100	–	100 to 1000	< 100	Cc1cn2cc(-c3cc(F)c4c(=O)n(C5CCNCC5)cnc4c3)cc(F)c2n1 [Compound 230]	< 100
–	100 to 1000	–	100 to 1000	100 to 1000	Cc1cn2cc(-c3cc(F)c4c(=O)n(C5CCN(C)CC5)cnc4c3)cc(F)c2n1 [Compound 231, 5-fluoro-7-{8-fluoro-2-methylimidazo[1,2-a]pyridin-6-yl}-3-(1-methylpiperidin-4-yl)quinazolin-4-one]	100 to 1000
–	< 100	–	< 100	< 100	Cc1cc(-c2cc(F)c3c(=O)n(C4CCNCC4)cnc3c2)cc2cn(C)nc12 [Compound 232]	< 100
–	100 to 1000	–	100 to 1000	100 to 1000	Cc1cc(-c2cc(F)c3c(=O)n(C4CCN(C)CC4)cnc3c2)cc2cn(C)nc12 [Compound 233]	100 to 1000
–	1000 to 10000	–	1000 to 10000	1000 to 10000	Cc1cc(-c2ccc3c(=O)n(C4CCNCC4)cnc3c2F)cc2cn(C)nc12 [Compound 234]	1000 to 10000
–	> 10000	–	> 10000	> 10000	Cc1cc(-c2ccc3c(=O)n(C4CCN(C)CC4)cnc3c2F)cc2cn(C)nc12 [Compound 235]	> 10000
–	< 100	–	100 to 1000	100 to 1000	Cc1cn2cc(-c3ccc4c(=O)n(C5CCNC6(CC6)C5)cnc4c3)cc(F)c2n1 (centres unmarked) [Compound 236]	100 to 1000
–	100 to 1000	–	100 to 1000	100 to 1000	Cc1cn2cc(-c3ccc4c(=O)n(C5CCNC(C)(C)C5)cnc4c3)cc(F)c2n1 (centres unmarked) [Compound 237]	100 to 1000
–	1000 to 10000	–	1000 to 10000	1000 to 10000	Cc1cn2nc(-n3cnc4cc(N5CCNCC5)ccc4c3=O)cc(C)c2n1 [Compound 241]	1000 to 10000
–	< 100	–	< 100	< 100	Cc1cn2nc(-c3cc(F)c4c(=O)n(C5CCN(C)CC5)cnc4c3)cc(C)c2n1 [Compound 242]	< 100
< 100	100 to 1000	–	100 to 1000	–	Cc1cn2cc(-c3ncc4c(=O)n([C@H]5CCNC6(CC6)C5)ccc4n3)cc(F)c2n1 [Compound 1458, 6-[(7S)-4-azaspiro[2.5]octan-7-yl]-2-(8-fluoro-2-methyl-imidazo[1,2-a]pyridin-6-yl)pyrido[4,3-d]pyrimidin-5-one]	< 100
